Earlier results as cited in patent publication US6723506B2, “Method of identifying PAX8-PPAR gamma-nucleic acid molecules” (Brigham and Women's Hospital, priority 2000, dated 2004).

Tested on: PML-RAR (retinoic acid receptor α) translocation
Conditions: patients harboring the PML-RAR translocation

SMILES: CC1=C(/C=C/C(C)=C/C=C/C(C)=C/C(=O)O)C(C)(C)CCC1 [all-trans retinoic acid]
- remission in APML patients: induces remission in nearly every patient
